≈ marks a conversion by molar mass, not a printed value.
System: Micrococcus luteus
Test: Antibacterial activity against Micrococcus luteus ATCC 10240 after 18 hrs by CLSI disc diffusion method
Assay type: functional
Conditions: ATCC 10240, 18 h

SMILES | MIC [µM]
CCn1nnnc1NCCc1c[nH]c2ccccc12 | 999 (≈ 256 µg/mL)
Clc1ccc(-n2nnnc2Nc2nccs2)cc1Cl | 51 (≈ 16 µg/mL)
Fc1ccc(-n2nnnc2NCCc2c[nH]c3ccccc23)cc1 | 12 (≈ 3.87 µg/mL)
Fc1ccc(-n2nnnc2Nc2nccs2)cc1Cl | 27 (≈ 8.01 µg/mL)
O=[N+]([O-])c1cc(-n2nnnc2Nc2nc[nH]n2)ccc1Cl | 52 (≈ 16 µg/mL)

System: Proteus vulgaris
Test: Antibacterial activity against Proteus vulgaris NCTC 4635 after 18 hrs by CLSI disc diffusion method
Assay type: functional
Conditions: NCTC 4635, 18 h

SMILES | MIC [µM]
CCn1nnnc1NCCc1c[nH]c2ccccc12 | 999 (≈ 256 µg/mL)
Clc1ccc(-n2nnnc2Nc2nccs2)cc1Cl | 821 (≈ 257 µg/mL)
Fc1ccc(-n2nnnc2NCCc2c[nH]c3ccccc23)cc1 | 12 (≈ 3.87 µg/mL)
Fc1ccc(-n2nnnc2Nc2nccs2)cc1Cl | > 865
O=[N+]([O-])c1cc(-n2nnnc2Nc2nc[nH]n2)ccc1Cl | 208 (≈ 64 µg/mL)

System: Staphylococcus aureus
Test: Antibacterial activity against Staphylococcus aureus NCTC 4163 after 18 hrs by CLSI disc diffusion method
Assay type: functional
Conditions: NCTC 4163, 18 h

SMILES | MIC [µM]
CCn1nnnc1NCCc1c[nH]c2ccccc12 | > 999
Clc1ccc(-n2nnnc2Nc2nccs2)cc1Cl | 103 (≈ 32.3 µg/mL)
Fc1ccc(-n2nnnc2NCCc2c[nH]c3ccccc23)cc1 | 50 (≈ 16.1 µg/mL)
Fc1ccc(-n2nnnc2Nc2nccs2)cc1Cl | 108 (≈ 32 µg/mL)
O=[N+]([O-])c1cc(-n2nnnc2Nc2nc[nH]n2)ccc1Cl | 208 (≈ 64 µg/mL)

System: Escherichia coli
Test: Antibacterial activity against Escherichia coli ATCC 10538 after 18 hrs by CLSI disc diffusion method
Assay type: functional
Conditions: ATCC 10538, 18 h

SMILES | MIC [µM]
CCn1nnnc1NCCc1c[nH]c2ccccc12 | 999 (≈ 256 µg/mL)
Clc1ccc(-n2nnnc2Nc2nccs2)cc1Cl | 821 (≈ 257 µg/mL)
Fc1ccc(-n2nnnc2NCCc2c[nH]c3ccccc23)cc1 | 25 (≈ 8.06 µg/mL)
Fc1ccc(-n2nnnc2Nc2nccs2)cc1Cl | > 865
O=[N+]([O-])c1cc(-n2nnnc2Nc2nc[nH]n2)ccc1Cl | 417 (≈ 128 µg/mL)

System: HaCaT
Test: Cytotoxicity activity against human HaCaT cells assessed as reduction in cell viability after 72 hrs by MTT assay
Assay type: cell-based
Conditions: not given

SMILES | IC50 [µM]
Fc1ccc(-n2nnnc2Nc2nccs2)cc1Cl | 60

System: not listed separately
Test: Selectivity index, ratio of IC50 for human HaCaT cells to MIC for Enterococcus hirae ATCC 10541
Assay type: toxicity
Conditions: read-out: Selectivity Index

SMILES | selectivity ratio
Fc1ccc(-n2nnnc2Nc2nccs2)cc1Cl | 2.22

System: Bacillus cereus
Test: Antibacterial activity against Bacillus cereus ATCC 11778 after 18 hrs by CLSI disc diffusion method
Assay type: functional
Conditions: ATCC 11778, 18 h

SMILES | MIC [µM]
CCn1nnnc1NCCc1c[nH]c2ccccc12 | 999 (≈ 256 µg/mL)
Clc1ccc(-n2nnnc2Nc2nccs2)cc1Cl | 26 (≈ 8.14 µg/mL)
Fc1ccc(-n2nnnc2NCCc2c[nH]c3ccccc23)cc1 | 6 (≈ 1.93 µg/mL)
Fc1ccc(-n2nnnc2Nc2nccs2)cc1Cl | 14 (≈ 4.15 µg/mL)
O=[N+]([O-])c1cc(-n2nnnc2Nc2nc[nH]n2)ccc1Cl | 26 (≈ 8 µg/mL)

System: not listed separately
Test: Selectivity index, ratio of IC50 for human HaCaT cells to MIC for Staphylococcus aureus NCTC 4163
Assay type: toxicity
Conditions: read-out: Selectivity Index

SMILES | selectivity ratio
Fc1ccc(-n2nnnc2Nc2nccs2)cc1Cl | 0.55

System: not listed separately
Test: Selectivity index, ratio of IC50 for human HaCaT cells to MIC for Micrococcus luteus ATCC 10240
Assay type: toxicity
Conditions: read-out: Selectivity Index

SMILES | selectivity ratio
Fc1ccc(-n2nnnc2Nc2nccs2)cc1Cl | 2.22

System: not listed separately
Test: Selectivity index, ratio of IC50 for human HaCaT cells to MIC for Proteus vulgaris NCTC 4635
Assay type: toxicity
Conditions: read-out: Selectivity Index

SMILES | selectivity ratio
Fc1ccc(-n2nnnc2Nc2nccs2)cc1Cl | 0.07

System: Micrococcus luteus
Test: Antibacterial activity against Micrococcus luteus ATCC 9341 after 18 hrs by CLSI disc diffusion method
Assay type: functional
Conditions: ATCC 9341, 18 h

SMILES | MIC [µM]
CCn1nnnc1NCCc1c[nH]c2ccccc12 | 999 (≈ 256 µg/mL)
Clc1ccc(-n2nnnc2Nc2nccs2)cc1Cl | 26 (≈ 8.14 µg/mL)
Fc1ccc(-n2nnnc2NCCc2c[nH]c3ccccc23)cc1 | 12 (≈ 3.87 µg/mL)
Fc1ccc(-n2nnnc2Nc2nccs2)cc1Cl | 14 (≈ 4.15 µg/mL)
O=[N+]([O-])c1cc(-n2nnnc2Nc2nc[nH]n2)ccc1Cl | 52 (≈ 16 µg/mL)

System: A549
Test: Cytotoxicity activity against human A549 cells assessed as reduction in cell viability after 72 hrs by MTT assay
Assay type: cell-based
Conditions: A549, 72 h

SMILES | IC50 [µM]
Fc1ccc(-n2nnnc2Nc2nccs2)cc1Cl | 60

System: not listed separately
Test: Selectivity index, ratio of IC50 for human HaCaT cells to MIC for Escherichia coli ATCC 10538
Assay type: toxicity
Conditions: read-out: Selectivity Index

SMILES | selectivity ratio
Fc1ccc(-n2nnnc2Nc2nccs2)cc1Cl | 0.07

System: Staphylococcus aureus
Test: Antibacterial activity against Staphylococcus aureus ATCC 25923 after 18 hrs by CLSI disc diffusion method
Assay type: functional
Conditions: ATCC 25923, 18 h

SMILES | MIC [µM]
CCn1nnnc1NCCc1c[nH]c2ccccc12 | > 999
Clc1ccc(-n2nnnc2Nc2nccs2)cc1Cl | 51 (≈ 16 µg/mL)
Fc1ccc(-n2nnnc2NCCc2c[nH]c3ccccc23)cc1 | 12 (≈ 3.87 µg/mL)
Fc1ccc(-n2nnnc2Nc2nccs2)cc1Cl | 108 (≈ 32 µg/mL)
O=[N+]([O-])c1cc(-n2nnnc2Nc2nc[nH]n2)ccc1Cl | 208 (≈ 64 µg/mL)

System: Staphylococcus epidermidis
Test: Antibacterial activity against Staphylococcus epidermidis ATCC 35984 after 18 hrs by CLSI […] method
Assay type: functional
Conditions: ATCC 35984, 18 h

SMILES | MIC [µM]
CCn1nnnc1NCCc1c[nH]c2ccccc12 | 999 (≈ 256 µg/mL)
Clc1ccc(-n2nnnc2Nc2nccs2)cc1Cl | 26 (≈ 8.14 µg/mL)
Fc1ccc(-n2nnnc2NCCc2c[nH]c3ccccc23)cc1 | 12 (≈ 3.87 µg/mL)
Fc1ccc(-n2nnnc2Nc2nccs2)cc1Cl | 14 (≈ 4.15 µg/mL)
O=[N+]([O-])c1cc(-n2nnnc2Nc2nc[nH]n2)ccc1Cl | 52 (≈ 16 µg/mL)

System: Enterococcus faecalis
Test: Antibacterial activity against Enterococcus faecalis ATCC 29212 after 18 hrs by CLSI disc diffusion method
Assay type: functional
Conditions: ATCC 29212, 18 h

SMILES | MIC [µM]
CCn1nnnc1NCCc1c[nH]c2ccccc12 | 999 (≈ 256 µg/mL)
Clc1ccc(-n2nnnc2Nc2nccs2)cc1Cl | 103 (≈ 32.3 µg/mL)
Fc1ccc(-n2nnnc2NCCc2c[nH]c3ccccc23)cc1 | 50 (≈ 16.1 µg/mL)
Fc1ccc(-n2nnnc2Nc2nccs2)cc1Cl | 54 (≈ 16 µg/mL)
O=[N+]([O-])c1cc(-n2nnnc2Nc2nc[nH]n2)ccc1Cl | 208 (≈ 64 µg/mL)

System: Pseudomonas aeruginosa
Test: Antibacterial activity against Pseudomonas aeruginosa ATCC 27853 after 18 hrs by CLSI disc diffusion method
Assay type: functional
Conditions: ATCC 27853, 18 h

SMILES | MIC [µM]
CCn1nnnc1NCCc1c[nH]c2ccccc12 | 999 (≈ 256 µg/mL)
Clc1ccc(-n2nnnc2Nc2nccs2)cc1Cl | 821 (≈ 257 µg/mL)
Fc1ccc(-n2nnnc2NCCc2c[nH]c3ccccc23)cc1 | 397 (≈ 128 µg/mL)
Fc1ccc(-n2nnnc2Nc2nccs2)cc1Cl | > 865
O=[N+]([O-])c1cc(-n2nnnc2Nc2nc[nH]n2)ccc1Cl | 834 (≈ 257 µg/mL)

System: not listed separately
Test: Selectivity index, ratio of IC50 for human HaCaT cells to MIC for Bordetella bronchiseptica ATCC 4617
Assay type: toxicity
Conditions: read-out: Selectivity Index

SMILES | selectivity ratio
Fc1ccc(-n2nnnc2Nc2nccs2)cc1Cl | 0.07

System: not listed separately
Test: Selectivity index, ratio of IC50 for human HaCaT cells to MIC for Bacillus subtilis ATCC 6633
Assay type: toxicity
Conditions: read-out: Selectivity Index

SMILES | selectivity ratio
Fc1ccc(-n2nnnc2Nc2nccs2)cc1Cl | 4.28

System: Pseudomonas aeruginosa
Test: Antibacterial activity against Pseudomonas aeruginosa ATCC 15442 after 18 hrs by CLSI disc diffusion method
Assay type: functional
Conditions: ATCC 15442, 18 h

SMILES | MIC [µM]
CCn1nnnc1NCCc1c[nH]c2ccccc12 | 999 (≈ 256 µg/mL)
Clc1ccc(-n2nnnc2Nc2nccs2)cc1Cl | 821 (≈ 257 µg/mL)
Fc1ccc(-n2nnnc2NCCc2c[nH]c3ccccc23)cc1 | 397 (≈ 128 µg/mL)
Fc1ccc(-n2nnnc2Nc2nccs2)cc1Cl | > 865
O=[N+]([O-])c1cc(-n2nnnc2Nc2nc[nH]n2)ccc1Cl | 834 (≈ 257 µg/mL)

System: Staphylococcus epidermidis
Test: Antibacterial activity against Staphylococcus epidermidis ATCC 12228 after 18 hrs by CLSI disc diffusion method
Assay type: functional
Conditions: ATCC 12228, 18 h

SMILES | MIC [µM]
CCn1nnnc1NCCc1c[nH]c2ccccc12 | 999 (≈ 256 µg/mL)
Clc1ccc(-n2nnnc2Nc2nccs2)cc1Cl | 51 (≈ 16 µg/mL)
Fc1ccc(-n2nnnc2NCCc2c[nH]c3ccccc23)cc1 | 50 (≈ 16.1 µg/mL)
Fc1ccc(-n2nnnc2Nc2nccs2)cc1Cl | 27 (≈ 8.01 µg/mL)
O=[N+]([O-])c1cc(-n2nnnc2Nc2nc[nH]n2)ccc1Cl | 104 (≈ 32 µg/mL)

System: Bordetella bronchiseptica
Test: Antibacterial activity against Bordetella bronchiseptica ATCC 4617 after 18 hrs by CLSI disc diffusion method
Assay type: functional
Conditions: ATCC 4617, 18 h

SMILES | MIC [µM]
CCn1nnnc1NCCc1c[nH]c2ccccc12 | 999 (≈ 256 µg/mL)
Clc1ccc(-n2nnnc2Nc2nccs2)cc1Cl | 410 (≈ 128 µg/mL)
Fc1ccc(-n2nnnc2NCCc2c[nH]c3ccccc23)cc1 | 12 (≈ 3.87 µg/mL)
Fc1ccc(-n2nnnc2Nc2nccs2)cc1Cl | > 865
O=[N+]([O-])c1cc(-n2nnnc2Nc2nc[nH]n2)ccc1Cl | 417 (≈ 128 µg/mL)

System: Enterococcus hirae
Test: Antibacterial activity against Enterococcus hirae ATCC 10541 after 18 hrs by CLSI disc diffusion method
Assay type: functional
Conditions: ATCC 10541, 18 h

SMILES | MIC [µM]
CCn1nnnc1NCCc1c[nH]c2ccccc12 | 999 (≈ 256 µg/mL)
Clc1ccc(-n2nnnc2Nc2nccs2)cc1Cl | 205 (≈ 64.2 µg/mL)
Fc1ccc(-n2nnnc2NCCc2c[nH]c3ccccc23)cc1 | 25 (≈ 8.06 µg/mL)
Fc1ccc(-n2nnnc2Nc2nccs2)cc1Cl | 27 (≈ 8.01 µg/mL)
O=[N+]([O-])c1cc(-n2nnnc2Nc2nc[nH]n2)ccc1Cl | 208 (≈ 64 µg/mL)

System: Bacillus spizizenii
Test: Antibacterial activity against Bacillus subtilis ATCC 6633 after 18 hrs by CLSI disc diffusion method
Assay type: functional
Conditions: ATCC 6633, 18 h

SMILES | MIC [µM]
CCn1nnnc1NCCc1c[nH]c2ccccc12 | 999 (≈ 256 µg/mL)
Clc1ccc(-n2nnnc2Nc2nccs2)cc1Cl | 6 (≈ 1.88 µg/mL)
Fc1ccc(-n2nnnc2NCCc2c[nH]c3ccccc23)cc1 | 12 (≈ 3.87 µg/mL)
Fc1ccc(-n2nnnc2Nc2nccs2)cc1Cl | 14 (≈ 4.15 µg/mL)
O=[N+]([O-])c1cc(-n2nnnc2Nc2nc[nH]n2)ccc1Cl | 52 (≈ 16 µg/mL)

System: Staphylococcus aureus
Test: Antibacterial activity against Staphylococcus aureus ATCC 6538 after 18 hrs by CLSI disc diffusion method
Assay type: functional
Conditions: ATCC 6538, 18 h

SMILES | MIC [µM]
CCn1nnnc1NCCc1c[nH]c2ccccc12 | > 999
Clc1ccc(-n2nnnc2Nc2nccs2)cc1Cl | 51 (≈ 16 µg/mL)
Fc1ccc(-n2nnnc2NCCc2c[nH]c3ccccc23)cc1 | 25 (≈ 8.06 µg/mL)
Fc1ccc(-n2nnnc2Nc2nccs2)cc1Cl | 108 (≈ 32 µg/mL)
O=[N+]([O-])c1cc(-n2nnnc2Nc2nc[nH]n2)ccc1Cl | 208 (≈ 64 µg/mL)

From ChEMBL document CHEMBL4152339, “Design and synthesis of novel 1H-tetrazol-5-amine based potent antimicrobial agents: DNA topoisomerase IV and gyrase affinity evaluation supported by molecular docking studies” (Eur J Med Chem, 2018)
